Results taken from patent US8642544B2, “N-terminus conformationally constrained GLP-1 receptor agonist compounds” (Amylin Pharmaceuticals, LLC, priority 2009, dated 2014).

Tests used:
NIH/Swiss female mice = assay: in vivo basal glucose lowering assay; details: subcutaneous injection
Protocol: Some compounds shown in Table 1 below were analyzed in an in vivo basal glucose lowering assay using the following procedure: A subcutaneous injection of either 200 μl phosphate-buffered saline (PBS) vehicle or test article was given immediately following baseline glucose (t=0) to NIH/Swiss female mice. Tail blood glucose samples were measured at t=2 and 4 hours post dose using a OneTouch® Ultra® (LifeScan, Inc., a Johnson & Johnson Company, Milpitas, Calif.). Body weight was measured daily. Significant test sample effects were identified by ANOVA (p<0.05), followed by Dunnett's post test using GraphPad Prism version 4.00 for Windows (GraphPad Software, San Diego Calif.).

GLP-1 receptor = molecular target: T1, GLP-1 receptor (Rattus norvegicus, UniProt P32301); assay: in vitro functional assay at the GLP-1 receptor (cyclase, cAMP production in RIN m5f cell membranes); assay type: biochemical; details: Cyclase GLP-1 Receptor EC50 (nM), Table 1; RIN m5f cell membranes, cAMP production (AlphaScreen)
T1 construct: 96-well assay plate containing RIN m5f cell membranes in an ATP/GTP mixture; endogenous in cells; host or cells: RIN m5f cell membranes
T1 sequence (P32301 22-463): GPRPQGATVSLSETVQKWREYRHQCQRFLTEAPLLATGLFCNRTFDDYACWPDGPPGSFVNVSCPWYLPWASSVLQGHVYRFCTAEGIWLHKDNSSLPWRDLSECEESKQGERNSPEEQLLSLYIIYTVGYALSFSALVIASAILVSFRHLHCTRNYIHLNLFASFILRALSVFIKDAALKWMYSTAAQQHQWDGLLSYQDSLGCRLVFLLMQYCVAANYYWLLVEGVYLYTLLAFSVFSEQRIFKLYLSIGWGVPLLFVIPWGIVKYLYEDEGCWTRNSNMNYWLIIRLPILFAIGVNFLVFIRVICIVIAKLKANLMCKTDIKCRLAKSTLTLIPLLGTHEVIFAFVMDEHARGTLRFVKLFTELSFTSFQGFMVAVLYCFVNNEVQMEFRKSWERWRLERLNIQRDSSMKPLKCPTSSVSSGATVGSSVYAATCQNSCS
Protocol: The compounds shown in Table 1 below were analyzed in an in vitro functional assay at the GLP-1 receptor. The assay was conducted as follows: Membrane fractions were prepared from confluent cultures of RIN m5f cells. Compounds were serially diluted with an assay buffer, and then added to a 96-well assay plate containing RIN m5f cell membranes in an ATP/GTP mixture. Cyclase activities were determined by measuring the production of cAMP induced through GLP-1 receptor activation. Quantification of cAMP production was achieved through a competitive chemiluminescence assay with a biotinylated-cAMP probe using Perkin Elmer Fusion™-Alpha Microplate Analyzer (AlphaScreen™ technology). The compound EC50 values were obtained through fitting the concentration-response curves to a four-parameter logistic equation within GraphPad PRISM® software.

CC[C@H](C)[C@H](NC(=O)[C@H](Cc1ccccc1)NC(=O)[C@H](CC(C)C)NC(=O)[C@H](CCCNC(=N)N)NC(=O)[C@@H](NC(=O)[C@H](C)NC(=O)[C@H](CCC(=O)O)NC(=O)[C@H](CCC(=O)O)NC(=O)[C@H](CCC(=O)O)NC(=O)[C@H](CC(C)C)NC(=O)[C@H](CCC(N)=O)NC(=O)[C@H](CCCCN)NC(=O)[C@H](CO)NC(=O)[C@H](CC(C)C)NC(=O)[C@H](CC(=O)O)NC(=O)[C@H](CO)NC(=O)[C@@H](NC(=O)[C@H](Cc1ccccc1)NC(=O)[C@@H](NC(=O)[C@H](C)N1CC[C@@H](C(=O)O)[C@H](NC(=O)[C@H](C)NC(=O)[C@@H](N)Cc2c[nH]cn2)C1=O)[C@@H](C)O)[C@@H](C)O)C(C)C)C(=O)N[C@@H](CCC(=O)O)C(=O)N[C@@H](Cc1c[nH]c2ccccc12)C(=O)N[C@@H](CC(C)C)C(=O)N[C@@H](CCCCN)C(=O)N[C@@H](CCC(N)=O)C(=O)NCC(=O)NCC(=O)N1CCC[C@H]1C(=O)N[C@@H](CO)C(=O)N[C@@H](CCCCN)C(=O)N[C@@H](CCC(=O)O)C(=O)N[C@H](C(=O)N[C@H](C(=O)N[C@@H](CO)C(=O)O)[C@@H](C)CC)[C@@H](C)CC [16F]
In Vivo Glucose-Lowering Assay (NIH/Swiss female mice; Table 1, time printed in minutes): about 30 minutes
EC50 (GLP-1 receptor): 0.61 nM

CC[C@H](C)[C@H](NC(=O)[C@H](Cc1ccccc1)NC(=O)[C@H](CC(C)C)NC(=O)[C@H](CCCNC(=N)N)NC(=O)[C@@H](NC(=O)[C@H](C)NC(=O)[C@H](CCC(=O)O)NC(=O)[C@H](CCC(=O)O)NC(=O)[C@H](CCC(=O)O)NC(=O)[C@H](CC(C)C)NC(=O)[C@H](CCC(N)=O)NC(=O)[C@H](CCCCN)NC(=O)[C@H](CO)NC(=O)[C@H](CC(C)C)NC(=O)[C@H](CC(=O)O)NC(=O)[C@H](CO)NC(=O)[C@@H](NC(=O)[C@H](Cc1ccccc1)NC(=O)[C@@H](NC(=O)CNC(=O)C(C)(C)NC(=O)[C@@H](C)NC(=O)[C@@H](N)Cc1c[nH]cn1)[C@@H](C)O)[C@@H](C)O)C(C)C)C(=O)N[C@@H](CCC(=O)O)C(=O)N[C@@H](Cc1ccccc1)C(=O)N[C@@H](CC(C)C)C(=O)N[C@@H](CCCCN)C(=O)N[C@@H](CC(N)=O)C(N)=O [9B]
In Vivo Glucose-Lowering Assay (NIH/Swiss female mice; Table 1, time in hours, tail blood glucose at t=2 and 4 hours post dose): more than 4 hours
EC50 (GLP-1 receptor): 0.03 nM
